Experimental data published in patent publication US6313180A, “Steroid compounds having contraceptive and anti-osteoporosis activity” (priority 1997, dated 2001).
Like-named read-outs stand apart in the source and are kept apart here.

Experiments:
[1] = tested on: human progesterone (P) receptor; test: Relative progesterone receptor binding affinity, cytoplasmic receptors of MCF-7 cells; conditions: relative to (16α)-16-ethyl-21-hydroxy-19-norpregn-4-ene-3,20-dione, 16 h, 4° C
ovariectomised rats = test: Prevention of ovariectomy-induced bone loss in rats (anti-osteoporosis test, pQCT trabecular bone mineral density); type: in vivo, rat (female Wistar); conditions: Rattus norvegicus, 672 h, read-out: Osteoporosis ED50
Source text: Ovariectomy induces in rats bone loss, which is due to oestrogen deficiency. Administration of oestrogenic compounds prevents this effect. The test is used to evaluate a compound for anti-osteoporotic activity in ovariectomised rats. The effect on bone mass can be evaluated by peripheral Quantitave Computed Tomography (pQCT) measurement of trabecular bone mineral density.
Mature virgin female Wistar rats preferentially, 225-250 g. Strain: Hsd/Cpd:Wu, SPF-bred by Harlan, CPB, Zeist, The Netherlands.
On day 1 of the experiment the rats are weighed and distributed over the cages in order of body weight. The rat with the lowest body weight in the first cage and the heaviest rat in the last cage. Treatments are randomized over the rats per block. A block (group of 3+n treatments) consists of 1 Intact placebo rat, 1 OVX placebo rat, 1 OVX reference rat and 1 rat of each n treatments.
Sham-operation and ovariectomy are performed under ether anaesthesia. After recovery from the anaesthesia, within 24 h, vehicle, reference compound or test compound is administered once or twice daily for 4 weeks.
Trabecular bone mineral density (mg/cm^3) of the metaphyseal part of the femur was measured with a pQCT (peripheral Quantitative Computed Tomography machine; XCT 960A, Stratec, Birkenfeld, Germany) directly after autopsy on fresh tissue. Two 360° scans, which have, due to the X-ray beam, a standard thickness of 1 mm were taken. The scans have a resolution of 0.148×0.148 mm. One scan was taken at 5.5 mm from the distal end of the femur, where trabecular bone mineral density of the metaphyseal part was measured. The other scan was taken in the diaphysis at 13.5 mm from the distal end, which contains no trabecular bone. In the latter scan cortical bone mineral density and the geometrical parameters, such as cortical thickness, total bone area, outer and inner diameter, were determined. Intra- and inter-assay variation for the measurement of trabecular bone mineral density in the distal femur were about 2-3%. The XCT-960A was calibrated with a standard of hydroxyapatite embedded in acrylic plastic.
Ovariectomy causes a statistically significant decrease in trabecular bone mineral density (P≤0.05, 2 way ANOVA).
The active dose (ED50) is the dose where a mean proportional difference in trabecular bone mineral density between 40 and 60% is reached as compared to the sham and ovariectomised group.
(§1) Several of the compounds according to the Examples I-VI, as well as other compounds according to the invention synthesized in analogous manner, were subjected to the tests described in the Examples VII and VIII. The results are described in the Table, in which the type of A-ring and the substitution at carbon atoms nos. 7, 11, and 17 is indicated. In the columns captioned E and P, the relative binding affinities for the estrogen and progesterone receptors are given; the ED50 results of the AllenDoisy and the McPhail tests have been indicated in μg/kg. In the column captioned "Osteoporosis", the ED50 results of the anti-osteoporosis test are given (dose in μg/kg, day, as described above).

[2] = McPhail test for progestagenic activity in vivo; conditions: read-out: McPhail ED50
[3] = Allen Doisy test for estrogenic activity in vivo; conditions: read-out: AllenDoisy ED50
[4] = molecular target: T1, human estradiol (E) receptor (Homo sapiens, UniProt P03372); type: binding
T1 construct: present in human breast tumor cells (MCF-7 cells); endogenous in cells; host or cells: MCF-7 human breast tumor cells
T1 sequence (P03372 1-595): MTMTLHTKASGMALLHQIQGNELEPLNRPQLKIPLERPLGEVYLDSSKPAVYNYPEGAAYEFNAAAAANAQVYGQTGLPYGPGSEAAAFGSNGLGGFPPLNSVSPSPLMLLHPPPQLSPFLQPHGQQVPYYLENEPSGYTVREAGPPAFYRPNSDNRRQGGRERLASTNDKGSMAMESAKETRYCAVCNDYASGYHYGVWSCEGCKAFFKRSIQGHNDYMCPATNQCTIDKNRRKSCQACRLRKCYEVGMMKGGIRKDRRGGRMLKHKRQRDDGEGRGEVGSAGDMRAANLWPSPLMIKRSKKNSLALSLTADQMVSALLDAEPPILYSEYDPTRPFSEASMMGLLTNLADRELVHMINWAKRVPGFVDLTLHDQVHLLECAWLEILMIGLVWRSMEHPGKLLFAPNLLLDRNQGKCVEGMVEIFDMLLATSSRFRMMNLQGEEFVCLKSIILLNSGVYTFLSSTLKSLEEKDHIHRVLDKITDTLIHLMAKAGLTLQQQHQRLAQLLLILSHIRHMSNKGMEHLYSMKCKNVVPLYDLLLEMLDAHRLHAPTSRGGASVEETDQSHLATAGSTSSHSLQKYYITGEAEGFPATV
Experimental: The relative estradiol receptor binding affinity was measured in the same manner as described above but using 17βestradiol as a reference.
as §1

[5] = oral administration, ovariectomised rats, once or twice daily for 4 weeks, 40-60% proportional difference in trabecular bone mineral density
[6] = oral administration, progestagenic activity
[7] = oral administration, estrogenic activity

| Compound | Relative binding affinity to the human progesterone (P) receptor [1] [%] | ED50 (ovariectomised rats; [5]) [mg/kg] | ED50 [2, 6] [mg/kg] | ED50 [3, 7] [mg/kg] | Relative binding affinity to the human estradiol (E) receptor [4] [%] | ED50 (ovariectomised rats; po) [mg/kg] | ED50 ([2]; po) [mg/kg] | ED50 ([3]; po) [mg/kg] |
| --- | --- | --- | --- | --- | --- | --- | --- | --- |
| C[C@]12CC[C@@H]3c4ccc(O)cc4CC[C@H]3[C@@H]1C[C@H]1CCCC[C@]12O [Code 37469] | 23 | > 4 | > 2 | > 4 | 1 | – | – | – |
| C[C@]12CC[C@@H]3C4=C(CC[C@H]3[C@@H]1C[C@H]1CCCC[C@]12O)CC(=O)CC4 [Code 37516] | 13 | > 2 | 1 | > 4 | – | – | – | – |
| C[C@]12CC[C@H]3[C@@H](CCC4=CC(=O)CC[C@@H]43)[C@@H]1C[C@H]1CCCC[C@]12O [Code 37518] | 115 | – | – | – | – | > 2 | 0.125 | > 4 |
| C[C@@H]1Cc2cc(O)ccc2[C@H]2CC[C@@]3(C)[C@@H](C[C@H]4CCCC[C@]43O)[C@H]12 [Code 37828] | 10 | 0.5 | – | 0.192 | 11 | – | – | – |
| CC[C@H]1C[C@@]2(C)[C@@H](C[C@H]3CCCC[C@]32O)[C@@H]2CCc3cc(O)ccc3[C@@H]12 [Code 37862] | 2 | < 0.016 | – | 0.032 | 96 | – | – | – |
| C[C@H]1C[C@@H]2C[C@H]3[C@@H]4[C@H](C)Cc5cc(O)ccc5[C@H]4CC[C@]3(C)[C@]2(O)C1 [Code 37893] | 11 | 0.5 | > 4 | 0.5 | 38 | – | – | – |
| CC[C@H]1C[C@@]2(C)[C@@H](C[C@H]3CCCC[C@]32O)[C@@H]2CCC3=CC(=O)CC[C@@H]3[C@@H]12 [Code 37943] | 96 | – | – | – | – | 0.4 | 1 | 0.192 |
| CCC[C@@H]1C[C@@H]2C[C@H]3[C@@H]4CCc5cc(O)ccc5[C@H]4CC[C@]3(C)[C@]2(O)C1 [Code 37968] | 6 | – | > 4 | > 1 | 1 | – | – | – |
| CCC[C@H]1C[C@@H]2C[C@H]3[C@@H]4CCc5cc(O)ccc5[C@H]4CC[C@]3(C)[C@]2(O)C1 [Code 37969] | 25 | > 1 | 4 | > 1 | 3 | – | – | – |
| CCC[C@H]1C[C@@H]2C[C@H]3[C@@H]4CCC5=CC(=O)CC[C@@H]5[C@H]4CC[C@]3(C)[C@]2(O)C1 [Code 37977] | 151 | – | – | – | – | > 1 | 0.5 | > 4 |
| C[C@H]1C[C@@H]2C[C@H]3[C@H]4[C@H](CC[C@]3(C)[C@]2(O)C1)[C@H]1CCC(=O)C=C1C[C@H]4C [Code 38049] | 250 | – | – | – | – | > 1 | 1 | > 2 |
| CCC[C@H]1C[C@H]2C[C@H]3[C@@H]4[C@H](C)Cc5cc(O)ccc5[C@H]4CC[C@]3(C)[C@@]2(O)C1 [Code 38079] | 1 | – | – | > 4 | < 1 | – | – | – |
| CCC[C@@H]1C[C@@H]2C[C@H]3[C@@H]4CCC5=C(CCC(=O)C5)[C@H]4[C@@H](CC)C[C@]3(C)[C@]2(O)C1 [Code 38151] | 8 | – | > 1 | 0.125 | – | – | – | – |
| CCCC[C@@H]1C[C@@H]2C[C@H]3[C@@H]4CCC5=CC(=O)CC[C@@H]5[C@H]4[C@@H](C)C[C@]3(C)[C@]2(O)C1 [Code 38276, (4'R,11-beta,16-beta-17-beta)-4'-butyl-4',5',16,17-tetrahydro-17-hydroxy-11-methyl-3'H-cyclopenta[16,17]estra-4,16-dien-3-one] | 115 | > 1 | 0.125 | > 0.5 | – | – | – | – |
| C[C@H]1C[C@@]2(C)[C@@H](C[C@H]3C[C@H](CN=[N+]=[N-])C[C@]32O)[C@@H]2CCC3=CC(=O)CC[C@@H]3[C@H]21 [Code 38322] | 44 | > 1 | 0.063 | > 0.5 | – | – | – | – |
| CCC[C@@H]1Cc2cc(O)ccc2[C@H]2CC[C@@]3(C)[C@@H](C[C@H]4C[C@H](C)C[C@]43O)[C@H]12 [Code 38481, (4'S,7-alpha,16-beta, 17-beta)-3',4',5',16-tetrahydro-4'-methyl-7-propyl-17H-cyclopenta[16,17]estra-1,3,5(10)-trien-3,17-diol] | 6 | 0.125 | > 4 | 0.064 | 23 | – | – | – |
| CCC[C@@H]1Cc2cc(O)ccc2[C@H]2CC[C@@]3(C)[C@@H](C[C@@H]4C[C@@H](C)C[C@@]43O)[C@H]12 [Code 38513] | – | – | > 0.125 | 2 | 0.2 | – | – | – |
| CCC[C@@H]1Cc2cc(O)ccc2[C@H]2CC[C@@]3(C)[C@@H](C[C@H]4C[C@@H](C)C[C@]43O)[C@H]12 [Code 38514] | 4 | < 0.032 | > 2 | 0.024 | 11 | – | – | – |
| C[C@H]1C[C@@H]2C[C@H]3[C@@H]4CCC5=CC(=O)CC[C@@H]5[C@H]4CC[C@]3(C)[C@]2(O)C1 [Code 38541] | 58 | – | – | – | – | > 1 | 0.125 | > 0.5 |
| CCC[C@@H]1CC2=CC(=O)CC[C@@H]2[C@H]2CC[C@@]3(C)[C@@H](C[C@H]4C[C@@H](C)C[C@]43O)[C@H]12 [Code 38550] | 36 | 0.125 | > 0.125 | 0.125 | – | – | – | – |
| CCC[C@H]1C[C@@H]2C[C@H]3[C@@H]4CCC5=CC(=O)CC[C@@H]5[C@H]4[C@@H](CC)C[C@]3(C)[C@]2(O)C1 [Code 38577] | 139 | 0.25 | > 0.5 | 0.192 | – | – | – | – |
| CC[C@H]1C[C@@H]2C[C@H]3[C@@H]4CCC5=CC(=O)CC[C@@H]5[C@H]4[C@@H](CC)C[C@]3(C)[C@]2(O)C1 [Code 38610] | 0.3 | 0.125 | > 0.125 | 0.032 | – | – | – | – |
